In experiment [1] the target is T1, bovine erythrocyte CA-II (Bos taurus, UniProt P00921). Nature of the experiment: CA-II in vitro inhibition assay. It is filed as biochemical. To be noted: for Percent inhibition (0.5 mM): compound at 0.5 mM; for inhibition at 500 µM: read-out: Percent inhibition (0.5 mM).
For experiment [2], the target named is T1, bovine erythrocyte CA-II. Nature of the experiment: Enzyme kinetics study of CA-II inhibition. The experiment is classed as biochemical.
Setting [3] is: read-out: IC50 ± μM (SEM), bovine CA-II, triplicate, SEM.

The structures appear in SMILES notation. Where two headings read alike, the source gives them in different places.

T1 sequence (P00921 whole entry): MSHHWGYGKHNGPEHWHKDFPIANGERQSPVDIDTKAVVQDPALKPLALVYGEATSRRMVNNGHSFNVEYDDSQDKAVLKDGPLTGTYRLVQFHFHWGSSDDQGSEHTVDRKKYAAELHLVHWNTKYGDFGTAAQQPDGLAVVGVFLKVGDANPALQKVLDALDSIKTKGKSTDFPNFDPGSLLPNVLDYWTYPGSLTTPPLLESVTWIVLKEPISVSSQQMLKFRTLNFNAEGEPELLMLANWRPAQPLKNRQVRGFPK

Turning to `Brc1ccc(-c2cs/c(=N/N=C/c3ccc(N4CCOCC4)cc3)n2-c2ccccc2)cc1` [Compound 27, 4-{4-[(E)-{[(E)-4-(4-bromophenyl)-3-phenylthiazol-2(3H)-ylidene]hydrazone}methyl]phenyl}morpholine], in experiment [1] (bovine CA-II), the “Percent inhibition (0.5 mM)” value amounted to 84.95%. Further, the IC50 (usually the concentration that gives 50% inhibition) in experiment [1] (setting [3]) amounted to 23.8 ± 0.44 µM.
In the same order, the values of `COc1ccc(-n2c(-c3ccc([N+](=O)[O-])cc3)cs/c2=N/N=C/c2ccc(N3CCOCC3)cc2)cc1` [Compound 25, 4-{4-[(E)-{[(E)-3-(4-methoxyphenyl)-4-(4-nitrophenyl)thiazol-2(3H)-ylidene]hydrazone}methyl]phenyl}morpholine] are 88.69% and 16.5 ± 0.4 µM.
As to `Cc1cccc(C)c1-n1c(-c2ccc([N+](=O)[O-])cc2)cs/c1=N/N=C/c1ccc(N2CCOCC2)cc1` [Compound 26, 4-{4-[(E)-{[(E)-3-(2,6-dimethylphenyl)-4-(4-nitrophenyl)thiazol-2(3H)ylidene] hydrazone}methyl]phenyl}morpholine], in experiment [1] (bovine CA-II), the “Percent inhibition (0.5 mM)” value worked out at 89.76%. Also, in experiment [1] (setting [3]), the IC50 was 17.2 ± 0.36 µM.
For the compound `Clc1ccc(-c2cs/c(=N/N=C/c3ccc(N4CCOCC4)cc3)n2CCc2ccccc2)cc1` [Compound 15, 4-{4-[(E)-{[(E)-4-(4-chlorophenyl)-3-phenethylthiazol-2(3H)-ylidene]hydrazone}methyl]phenyl}morpholine], the “Percent inhibition (0.5 mM)” value in experiment [1] (bovine CA-II) amounted to 75.36%. In addition, the IC50 in experiment [1] (setting [3]) is 49.3 ± 1.35 µM.
In the case of `Cc1ccc(Cn2c(-c3ccc(Cl)cc3)cs/c2=N/N=C/c2ccc(N3CCOCC3)cc2)cc1` [Compound 16, 4-{4-[(E)-{[(E)-4-(4-chlorophenyl)-3-(4-methylbenzyl)thiazol-2(3H)-ylidene]hydrazone}methyl]phenyl}morpholine], the “Percent inhibition (0.5 mM)” value in experiment [1] (bovine CA-II) was 70.20%. For the same compound, the IC50 in experiment [1] (setting [3]) stood at 56.3 ± 1.4 µM.
In the case of `C(=N\N=c1\scc(-c2ccccc2)n1C1CCCCC1)/c1ccc(N2CCOCC2)cc1` [Compound 3, 4-{4-[(E)-{[(E)-3-cyclohexyl-4-phenylthiazol-2(3H)-ylidene]hydrazone}methyl]phenyl} morpholine], in experiment [1] (bovine CA-II), the “Percent inhibition (0.5 mM)” value is 86.44%. For the same compound, the IC50 in experiment [1] (setting [3]) is 30.2 ± 0.59 µM.
As to `O=[N+]([O-])c1cccc(-n2c(-c3ccccc3)cs/c2=N/N=C/c2ccc(N3CCOCC3)cc2)c1` [Compound 8, 4-{4-[(E)-{[(E)-3-(3-nitrophenyl)-4-phenylthiazol-2(3H)-ylidene] hydrazone}methyl]phenyl} morpholine], the “Percent inhibition (0.5 mM)” value in experiment [1] (bovine CA-II) was found to be 83.11%. Further, the IC50 in experiment [1] (setting [3]) was 27.4 ± 0.47 µM.
`Clc1ccc(-c2cs/c(=N/N=C/c3ccc(N4CCOCC4)cc3)n2CCN2CCOCC2)cc1` [Compound 17, 4-{2-[(E)-2-{[(E)-4-morpholinobenzylidene]hydrazineylidene}-4-(4-chlorophenyl)thiazol-3(2H)-yl]ethyl}morpholine]: in experiment [1], the IC50 was found to be 51.2 ± 1.26 µM and the inhibition (commonly the drop in the measured response relative to a control, in per cent) at 500 µM was determined as 71.2%.
With `O=[N+]([O-])c1ccc(-c2cs/c(=N/N=C/c3ccc(N4CCOCC4)cc3)n2CCN2CCOCC2)cc1` [Compound 24, 4-{2-[(E)-2-{[(E)-4-morpholinobenzylidene]hydrazineylidene}-4-(4-nitrophenyl)thiazol-3(2H)-yl]ethyl}morpholine], in experiment [2], affinity was put at a Ki of 9.64 ± 0.007 µM. The type of inhibition result in experiment [2] (bovine CA-II, Lineweaver–Burk plot) is recorded as “competitive type of inhibition”. Also, in experiment [1], it took 14.7 ± 0.29 µM to reach half-maximal inhibition (IC50) and the inhibition at 500 µM stood at 90.2%.
In the case of `Cc1cccc(C)c1-n1c(-c2ccc(Cl)cc2)cs/c1=N/N=C/c1ccc(N2CCOCC2)cc1` [Compound 21, 4-{4-[(E)-{[(E)-4-(4-chlorophenyl)-3-(2,6-dimethylphenyl)thiazol-2(3H)-ylidene]hydrazone}methyl]phenyl}morpholine], in experiment [1] (bovine CA-II), the “Percent inhibition (0.5 mM)” value was determined as 81.46%. Moreover, in experiment [1] (setting [3]), the IC50 was determined as 38.6 ± 0.48 µM.
In the same order, the values of `C(=N\N=c1\scc(-c2ccccc2)n1Cc1ccccc1)/c1ccc(N2CCOCC2)cc1` [Compound 5, 4-{4-[(E)-{[(E)-3-benzyl-4-phenylthiazol-2(3H)-ylidene] hydrazone}methyl]phenyl} morpholine] are 86.61% and 26.5 ± 0.68 µM.
`C(=N\N=c1\scc(-c2ccccc2)n1CCN1CCOCC1)/c1ccc(N2CCOCC2)cc1` [Compound 7, 4-{2-[(E)-2-{[(E)-4-morpholinobenzylidene]hydrazineylidene}-4-phenylthiazol-3(2H)-yl]ethyl}morpholine]: in experiment [1], the IC50 is 37.2 ± 1.37 µM and the inhibition at 500 µM is 80.9%.
Regarding `Clc1ccc(-c2cs/c(=N/N=C/c3ccc(N4CCOCC4)cc3)n2Cc2ccccc2)cc1` [Compound 14, 4-{4-[(E)-{[(E)-3-benzyl-4-(4-chlorophenyl)thiazol-2(3H)-ylidene]hydrazone}methyl]phenyl}morpholine], the “Percent inhibition (0.5 mM)” value in experiment [1] (bovine CA-II) is 80.69%. In experiment [1] (setting [3]), the IC50 is 35.4 ± 0.64 µM.
In the same order, the values of `C(=N\N=c1\scc(-c2ccccc2)n1-c1cccc2ccccc12)/c1ccc(N2CCOCC2)cc1` [Compound 10, 4-{4-[(E)-{[(E)-3-(naphthalen-1-yl)-4-phenylthiazol-2(3H)-ylidene] hydrazone}methyl]phenyl} morpholine] are 80.20% and 39.7 ± 1.41 µM.
In the same order, the values of `C(=N\N=c1\scc(-c2ccccc2)n1CCc1ccccc1)/c1ccc(N2CCOCC2)cc1` [Compound 6, 4-{4-[(E)-{[(E)-3-phenethyl-4-phenylthiazol-2(3H)-ylidene]hydrazone}methyl]phenyl} morpholine] are 84.29% and 34.6 ± 1.1 µM.
In the same order, the values of `COc1ccc(-n2c(-c3ccc(Cl)cc3)cs/c2=N/N=C/c2ccc(N3CCOCC3)cc2)cc1` [Compound 19, 4-{4-[(E)-{[(E)-4-(4-chlorophenyl)-3-(4-methoxyphenyl)thiazol-2(3H)-ylidene] hydrazone}methyl]phenyl}morpholine] are 70.35% and 48.2 ± 1.19 µM.

Source of the values: publication PMC11228576 (RSC Advances, 2024).
